From article PMC9166766 (Experimental & Molecular Medicine, 2022)

What was measured:
[1] = test system: Jurkat T cells (PMA and ionomycin-induced gene expression); experiment: mRNA sequencing of activated Jurkat T cells; format: cell-based, human; conditions: P+I 8 h
Experimental: We then extracted RNA from these cells. Construction of the cDNA library and next-generation sequencing was performed at LAS (Gimpo, Korea). We sequenced all samples on an Illumina NextSeq 500 system with 75 paired-end reads. For the RNA sequencing analysis, reads for each sample were aligned to the human genome (GRCh37/hg19 genome assembly) using STAR 2.4.0.1[25] with default settings. We used HOMER tools to quantify and normalize the defined genes in RefSeq transcripts. FPKM normalized genes were hierarchically clustered using Cluster3.0[26]. We visualized refined data with Java Treeview (http://jtreeview.sourceforge.net). We conducted gene ontology analysis of each cluster using the DAVID web tool (https://david.ncifcrf.gov). Finally, we visualized the expression levels of target genes using the Integrative Genomics Viewer (http://software.broadinstitute.org/software/igv). The raw data were submitted to the NCBI Gene Expression Omnibus under accession number GSE185561.
Fig. 3 The CABIN1 peptide inhibits T-cell activation. a Heatmap of altered genes affected by FK506 treatment or CABIN1 peptide expression upon T-cell activation. b Gene Ontology analysis of cluster III. c mRNA expression levels of genes included in cluster III. d qRT-PCR data of genes in c. The experiment was independently repeated at least three times, and the data are presented as the mean ± standard deviation. Statistical differences were determined using two-tailed Student’s t-test. *p < 0.05, **p < 0.01, ***p < 0.001, NC negative control.

[2] = test system: NFATC2 dephosphorylation; experiment: NFAT mobility shifting assay in Jurkat T cells; format: cell-based; conditions: HA-mCherry-tagged peptides, PMA and ionomycin 2 h, n = 7
Experimental: Jurkat T cells expressing GST-tagged peptides were treated with PMA and ionomycin for activation. […] For dephosphorylation of NFATC2, Jurkat T cells were treated with PMA and ionomycin for 2 h. c Hyper- and hypophosphorylated NFATC2 of b was measured using ImageJ, and the hypo/hyper ratio was calculated (n = 7). d Snapshot images of the activated Jurkat T cells expressing the indicated peptides and tNFATC2 were obtained using confocal microscopy. The expression and localization of peptides and tNFATC2 are shown as mCherry (red) and EGFP (green), respectively. Nuclei were stained with Hoechst (blue). Scale bar, 50 μm e Nuclear-localized tNFATC2 was measured by calculating the colocalization ratio between Hoechst (M1) and EGFP (M2). […] Statistical differences were determined using a two-tailed Student’s t-test (a, c) or one-way ANOVA (e). ***p < 0.001, NC negative control.

[3] = design: method as in PMID 24319282; conditions: ref [17]; cited from earlier work
Text: FK506 and cyclosporin A, respectively cooperating with FKBP12 or cyclophilin, spatially hinder the substrates’ access to the active site of calcineurin, inhibiting its phosphatase activity[30],[31].

[4] = test system: tNFATC2 nuclear import; experiment: Nuclear localization of EGFP-tNFATC2 by confocal microscopy in Jurkat T cells; format: cell-based; conditions: 40 nM PMA and 1 μM ionomycin 4 h, FK506 0.5 μM, n = 10-12
Experimental: We transfected Jurkat T cells with the pCAG-EGFP-tNFATC2-IRES-mCherry-peptide by electroporation. After two days, we pretreated these cells with 0.5 μM FK506 for 30 min. Then, we treated them with 40 nM PMA and 1 μM ionomycin under culture conditions for 4 h. Before imaging by a confocal laser scanning microscope (Nikon, Tokyo, Japan), we treated the cells with 10 μg/ml Hoechst 33342 (Invitrogen, Waltham, MA, USA) to stain nuclei. Colocalization analysis of mCherry and Hoechst was performed with ImageJ and its plugin JACoP to measure the Manders coefficient[23],[24].
Scale bar, 50 μm e Nuclear-localized tNFATC2 was measured by calculating the colocalization ratio between Hoechst (M1) and EGFP (M2).

Compound C=CC[C@@H]1/C=C(\C)C[C@H](C)C[C@H](OC)[C@H]2O[C@@](O)(C(=O)C(=O)N3CCCC[C@H]3C(=O)O[C@H](/C(C)=C/[C@@H]3CC[C@@H](O)[C@H](OC)C3)[C@H](C)[C@@H](O)CC1=O)[C@H](C)C[C@@H]2OC [FK506, reference compound] has a PDGFA expression ([1]; NC 1.497, NC_P+I 26.809) of 3.25 FPKM, a PHACTR2 expression ([1]; NC 1.659, NC_P+I 9.467) of 2.927 FPKM and a CABP1 expression ([1]; NC 1.702, NC_P+I 5.834) of 1.201 FPKM. For the same compound, the POU2AF1 expression ([1]; NC 1.84, NC_P+I 36.298) was 2.274 FPKM, the SPRY1 expression ([1]; NC 2.079, NC_P+I 12.391) was 4.074 FPKM and the GFOD1 expression ([1]; NC 2.283, NC_P+I 12.861) was 4.187 FPKM. For the same compound, the DSTYK expression ([1]; NC 2.356, NC_P+I 7.198) was 3.501 FPKM, the FMNL2 expression ([1]; NC 2.395, NC_P+I 6.813) was 2.726 FPKM and the ADORA2A expression ([1]; NC 2.492, NC_P+I 11.633) was 0.998 FPKM. The CD27 expression ([1]; NC 2.525, NC_P+I 27.462) was 3.098 FPKM, the TNFRSF4 expression ([1]; NC 2.597, NC_P+I 31.683) was 2.933 FPKM and the REL expression ([1]; NC 2.654, NC_P+I 20.219) was 4.749 FPKM. The JAK2 expression ([1]; NC 2.788, NC_P+I 26.566) was 5.248 FPKM, the LRRC8B expression ([1]; NC 2.89, NC_P+I 28.699) was 3.555 FPKM and the NPDC1 expression ([1]; NC 3.008, NC_P+I 8.759) was 4.328 FPKM. It also gave a CD27-AS1 expression ([1]; NC 3.088, NC_P+I 14.958) of 5.11 FPKM, a CST7 expression ([1]; NC 3.315, NC_P+I 14.15) of 2.338 FPKM and a TAGAP expression ([1]; NC 3.351, NC_P+I 128.498) of 4.352 FPKM. For the same compound, the CD55 expression ([1]; NC 3.587, NC_P+I 39.451) was 6.015 FPKM, the GTDC1 expression ([1]; NC 3.595, NC_P+I 10.378) was 4.629 FPKM and the KCNK5 expression ([1]; NC 3.84, NC_P+I 14.865) was 3.906 FPKM. The MYO1D expression ([1]; NC 4.114, NC_P+I 11.118) was 4.59 FPKM, the RDH10 expression ([1]; NC 4.125, NC_P+I 19.889) was 5.856 FPKM and the COL27A1 expression ([1]; NC 4.149, NC_P+I 17.216) was 4.463 FPKM. For the same compound, the PLK3 expression ([1]; NC 4.432, NC_P+I 14.807) was 5.257 FPKM, the NFATC1 expression ([1]; NC 4.511, NC_P+I 15.287) was 3.793 FPKM and the ASAP1 expression ([1]; NC 4.678, NC_P+I 18.37) was 7.765 FPKM. It also gave a GRK5 expression ([1]; NC 5.451, NC_P+I 21.464) of 8.481 FPKM, a CCDC64 expression ([1]; NC 5.477, NC_P+I 33.545) of 10.044 FPKM and an ATG14 expression ([1]; NC 5.727, NC_P+I 30.239) of 7.863 FPKM. The PELI1 expression ([1]; NC 5.755, NC_P+I 16.085) was 8.175 FPKM, the ARHGEF3 expression ([1]; NC 6.146, NC_P+I 31.337) was 8.637 FPKM and the PKIA expression ([1]; NC 6.444, NC_P+I 49.019) was 13.962 FPKM. It also gave an LTBP4 expression ([1]; NC 7.304, NC_P+I 33.466) of 8.427 FPKM, an LAMP3 expression ([1]; NC 8.064, NC_P+I 31.61) of 6.412 FPKM and an LAX1 expression ([1]; NC 8.344, NC_P+I 24) of 8.052 FPKM. It also gave a PTPN22 expression ([1]; NC 8.928, NC_P+I 45.38) of 6.37 FPKM, a VAMP1 expression ([1]; NC 9.566, NC_P+I 50.97) of 14.793 FPKM and an NINJ1 expression ([1]; NC 10.319, NC_P+I 76.622) of 11.769 FPKM. It also gave a KCNK1 expression ([1]; NC 10.828, NC_P+I 36.893) of 10.967 FPKM, a CD97 expression ([1]; NC 10.97, NC_P+I 49.481) of 19.394 FPKM and an FBXO34 expression ([1]; NC 11.735, NC_P+I 48.015) of 14.612 FPKM. It also gave a TBC1D20 expression ([1]; NC 11.844, NC_P+I 35.808) of 17.7 FPKM, an MIR6775 expression ([1]; NC 12.409, NC_P+I 50.527) of 19.643 FPKM and an AGK expression ([1]; NC 14.395, NC_P+I 39.056) of 14.029 FPKM. For the same compound, the FYN expression ([1]; NC 14.671, NC_P+I 58.084) was 16.523 FPKM, the MIR6821 expression ([1]; NC 17.553, NC_P+I 62.894) was 13.626 FPKM and the NDFIP1 expression ([1]; NC 19.638, NC_P+I 54.615) was 22.485 FPKM. It also gave a TBC1D4 expression ([1]; NC 20.739, NC_P+I 73.749) of 12.549 FPKM, an MAP2K3 expression ([1]; NC 21.676, NC_P+I 144.057) of 41.815 FPKM and a PTPN6 expression ([1]; NC 22.163, NC_P+I 77.092) of 20.906 FPKM. The FXYD5 expression ([1]; NC 25.643, NC_P+I 101.352) was 41.346 FPKM, the BCL2L1 expression ([1]; NC 31.375, NC_P+I 113.956) was 39.402 FPKM and the ATP6V1B2 expression ([1]; NC 33.172, NC_P+I 129.395) was 50.672 FPKM. The PIM3 expression ([1]; NC 37.434, NC_P+I 180.382) was 42.827 FPKM, the PPIF expression ([1]; NC 58.328, NC_P+I 188.301) was 50.291 FPKM and the “NFATC2 dephosphorylation / band shift” value [2] was “inhibited the NFATC2 band shift”. The side effects [3] was “nephrotoxicity, fibrogenesis, neurotoxicity, and diabetes” and the “proportion of nuclear-localized tNFATC2” value [4] was “lowest”.
